From patent US11331299B2, “Medicinal use of serrulatane diterpenes” (The University of Sydney, priority 2016, dated 2022)

Experiments:
Assay in all cases: biochemical
Assay type in all cases: binding
[1] = biological target: receptors (Bioprint panel) (Homo sapiens, UniProt P03372); details: Estrogen ER alpha (h) (agonist radioligand); 10 μM; read-out: % Inhibition of Control Specific Binding
[2] = biological target: receptors (Bioprint panel) (Homo sapiens, UniProt P04150); details: read-out: % Inhibition of Control Specific Binding
[3] = biological target: receptors (Bioprint panel) (Homo sapiens, UniProt P07550); details: […] beta 2 (h) (agonist radioligand); 10 μM; read-out: % Inhibition of Control Specific Binding
[4] = biological target: receptors (Bioprint panel) (Homo sapiens, UniProt P08173); details: […] M4 (h) (antagonist radioligand); 10 μM; read-out: % Inhibition of Control Specific Binding
[5] = biological target: receptors (Bioprint panel) (Homo sapiens, UniProt P08908); details: read-out: % Inhibition of Control Specific Binding
[6] = biological target: receptors (Bioprint panel) (Homo sapiens, UniProt P08913); details: […] alpha 2A (h) (antagonist radioligand); 10 μM; read-out: % Inhibition of Control Specific Binding
[7] = biological target: receptors (Bioprint panel) (Homo sapiens, UniProt P14416); details: DOPAMINE D2S (h) (agonist radioligand); 10 μM; read-out: % Inhibition of Control Specific Binding
Sequence of receptors (Bioprint panel) (Homo sapiens, UniProt P14416) (P14416 other isoform, or with tags, fused parts or gaps): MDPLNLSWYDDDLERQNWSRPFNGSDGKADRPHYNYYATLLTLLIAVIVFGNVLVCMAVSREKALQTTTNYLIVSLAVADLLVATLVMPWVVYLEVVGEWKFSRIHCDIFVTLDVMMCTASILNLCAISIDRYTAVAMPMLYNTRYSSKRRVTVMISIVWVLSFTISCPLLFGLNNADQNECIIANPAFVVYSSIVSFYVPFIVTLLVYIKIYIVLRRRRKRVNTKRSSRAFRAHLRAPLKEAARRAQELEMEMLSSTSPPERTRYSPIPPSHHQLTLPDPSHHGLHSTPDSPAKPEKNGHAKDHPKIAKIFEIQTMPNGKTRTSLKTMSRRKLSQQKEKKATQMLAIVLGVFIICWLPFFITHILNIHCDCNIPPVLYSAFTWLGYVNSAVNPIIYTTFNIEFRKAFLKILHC

[8] = biological target: receptors (Bioprint panel) (Homo sapiens, UniProt P18089); details: […] alpha 2B (h) (antagonist radioligand); 10 μM; read-out: % Inhibition of Control Specific Binding
[9] = biological target: receptors (Bioprint panel) (Homo sapiens, UniProt P21452); details: NEUROKININ NK2 (h) (agonist radioligand); 10 μM; read-out: % Inhibition of Control Specific Binding
[10] = biological target: receptors (Bioprint panel) (Homo sapiens, UniProt P28223); details: read-out: % Inhibition of Control Specific Binding
[11] = biological target: receptors (Bioprint panel) (Homo sapiens, UniProt P29274); details: ADENOSINE A2A (h) (agonist radioligand); 10 μM; read-out: % Inhibition of Control Specific Binding
[12] = biological target: receptors (Bioprint panel) (Homo sapiens, UniProt P29275); details: ADENOSINE A2B (h) (antagonist radioligand); 10 μM; read-out: % Inhibition of Control Specific Binding
[13] = biological target: receptors (Bioprint panel) (Homo sapiens, UniProt P30411); details: BRADYKININ B2 (h) (agonist radioligand); 10 μM; read-out: % Inhibition of Control Specific Binding
[14] = biological target: receptors (Bioprint panel) (Homo sapiens, UniProt P32239); details: CHOLECYSTOKININ CCK2 (CCKB) (h) (agonist radioligand); 10 μM; read-out: % Inhibition of Control Specific Binding
Sequence of receptors (Bioprint panel) (Homo sapiens, UniProt P32239) (P32239 whole entry): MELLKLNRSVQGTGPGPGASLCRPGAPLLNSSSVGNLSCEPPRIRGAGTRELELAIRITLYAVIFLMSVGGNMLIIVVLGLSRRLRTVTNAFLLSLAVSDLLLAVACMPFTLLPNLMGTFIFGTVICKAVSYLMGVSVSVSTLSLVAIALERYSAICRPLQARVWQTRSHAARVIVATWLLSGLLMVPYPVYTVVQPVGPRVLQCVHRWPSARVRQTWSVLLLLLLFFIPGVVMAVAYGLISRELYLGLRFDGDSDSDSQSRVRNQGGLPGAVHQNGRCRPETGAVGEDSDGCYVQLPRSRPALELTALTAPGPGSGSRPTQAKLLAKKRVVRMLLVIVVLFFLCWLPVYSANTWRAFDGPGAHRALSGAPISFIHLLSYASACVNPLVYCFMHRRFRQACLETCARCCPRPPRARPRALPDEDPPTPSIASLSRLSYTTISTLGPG

[15] = biological target: receptors (Bioprint panel) (Homo sapiens, UniProt P32247); details: BOMBESIN BB3 (h) (agonist radioligand); 10 μM; read-out: % Inhibition of Control Specific Binding
Sequence of receptors (Bioprint panel) (Homo sapiens, UniProt P32247) (P32247 whole entry): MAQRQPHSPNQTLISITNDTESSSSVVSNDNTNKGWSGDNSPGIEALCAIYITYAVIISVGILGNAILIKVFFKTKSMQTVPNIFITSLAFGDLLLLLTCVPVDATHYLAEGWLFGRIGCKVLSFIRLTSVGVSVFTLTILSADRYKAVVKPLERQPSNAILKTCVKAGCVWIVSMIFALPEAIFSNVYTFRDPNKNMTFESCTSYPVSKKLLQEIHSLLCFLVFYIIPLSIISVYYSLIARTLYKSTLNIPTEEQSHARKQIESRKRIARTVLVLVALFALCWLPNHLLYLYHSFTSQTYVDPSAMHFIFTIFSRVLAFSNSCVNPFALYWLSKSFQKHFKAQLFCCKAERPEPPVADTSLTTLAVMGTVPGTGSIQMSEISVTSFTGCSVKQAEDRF

[16] = biological target: receptors (Bioprint panel) (Homo sapiens, UniProt P34969); details: read-out: % Inhibition of Control Specific Binding
Sequence of receptors (Bioprint panel) (Homo sapiens, UniProt P34969) (P34969 whole entry): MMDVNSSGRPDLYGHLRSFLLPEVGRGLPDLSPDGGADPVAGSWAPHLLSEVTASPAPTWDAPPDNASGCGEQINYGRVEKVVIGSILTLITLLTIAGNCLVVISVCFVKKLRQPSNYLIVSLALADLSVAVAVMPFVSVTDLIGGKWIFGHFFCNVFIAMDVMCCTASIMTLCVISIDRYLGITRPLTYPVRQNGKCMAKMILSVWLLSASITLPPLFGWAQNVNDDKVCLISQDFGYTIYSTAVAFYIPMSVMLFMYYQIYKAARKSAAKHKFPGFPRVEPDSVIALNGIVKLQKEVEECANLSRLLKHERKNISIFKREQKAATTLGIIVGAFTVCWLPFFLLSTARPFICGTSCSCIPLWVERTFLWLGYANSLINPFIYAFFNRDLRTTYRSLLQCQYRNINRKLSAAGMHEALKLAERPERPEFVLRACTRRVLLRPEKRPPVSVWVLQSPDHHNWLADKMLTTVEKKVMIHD

[17] = biological target: receptors (Bioprint panel) (Homo sapiens, UniProt P34998); details: COR[…] FACTOR CRF1 (h) (agonist radioligand); 10 μM; read-out: % Inhibition of Control Specific Binding
[18] = biological target: receptors (Bioprint panel) (Homo sapiens, UniProt P35348); details: […] alpha 1A (h) (antagonist radioligand); 10 μM; read-out: % Inhibition of Control Specific Binding
[19] = biological target: receptors (Bioprint panel) (Homo sapiens, UniProt P35414); details: APJ (apelin) (h) (agonist radioligand); 10 μM; read-out: % Inhibition of Control Specific Binding
[20] = biological target: receptors (Bioprint panel) (Homo sapiens, UniProt P37288); details: VASOPRESSIN V1a (h) (agonist radioligand); 10 μM; read-out: % Inhibition of Control Specific Binding
[21] = biological target: receptors (Bioprint panel) (Homo sapiens, UniProt P41146); details: OPIOD & OPIOID-LIKE NOP (ORL1) (h) (agonist radioligand); 10 μM; read-out: % Inhibition of Control Specific Binding
[22] = biological target: receptors (Bioprint panel) (Homo sapiens, UniProt P43119); details: […] (PGI2) (h) (agonist radioligand); 10 μM; read-out: % Inhibition of Control Specific Binding
[23] = biological target: receptors (Bioprint panel) (Homo sapiens, UniProt P46098); details: read-out: % Inhibition of Control Specific Binding
[24] = biological target: receptors (Bioprint panel) (Homo sapiens, UniProt P50052); details: A[…] AT2 (h) (agonist radioligand); 10 μM; read-out: % Inhibition of Control Specific Binding
Sequence of receptors (Bioprint panel) (Homo sapiens, UniProt P50052) (P50052 whole entry): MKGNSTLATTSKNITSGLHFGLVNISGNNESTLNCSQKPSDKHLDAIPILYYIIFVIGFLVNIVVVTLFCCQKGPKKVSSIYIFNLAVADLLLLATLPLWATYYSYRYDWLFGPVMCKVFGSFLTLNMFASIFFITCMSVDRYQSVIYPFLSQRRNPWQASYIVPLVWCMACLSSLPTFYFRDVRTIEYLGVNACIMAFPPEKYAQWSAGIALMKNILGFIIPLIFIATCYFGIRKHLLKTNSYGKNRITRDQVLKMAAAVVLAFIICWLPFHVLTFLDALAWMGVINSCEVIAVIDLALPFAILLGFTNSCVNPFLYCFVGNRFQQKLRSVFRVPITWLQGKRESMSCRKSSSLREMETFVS

[25] = biological target: receptors (Bioprint panel) (Homo sapiens, UniProt Q15722); details: read-out: % Inhibition of Control Specific Binding
[26] = biological target: receptors (Bioprint panel) (Rattus norvegicus, UniProt P34975); details: OPIOD & OPIOID-LIKE kappa (KOP) (agonist radioligand); 10 μM; read-out: % Inhibition of Control Specific Binding
[27] = biological target: receptors (Bioprint panel) (Rattus norvegicus, UniProt Q02294); details: Ca2+ channel (N) (antagonist radioligand); 10 μM; read-out: % Inhibition of Control Specific Binding
Sequence of receptors (Bioprint panel) (Rattus norvegicus, UniProt Q02294) (Q02294 whole entry): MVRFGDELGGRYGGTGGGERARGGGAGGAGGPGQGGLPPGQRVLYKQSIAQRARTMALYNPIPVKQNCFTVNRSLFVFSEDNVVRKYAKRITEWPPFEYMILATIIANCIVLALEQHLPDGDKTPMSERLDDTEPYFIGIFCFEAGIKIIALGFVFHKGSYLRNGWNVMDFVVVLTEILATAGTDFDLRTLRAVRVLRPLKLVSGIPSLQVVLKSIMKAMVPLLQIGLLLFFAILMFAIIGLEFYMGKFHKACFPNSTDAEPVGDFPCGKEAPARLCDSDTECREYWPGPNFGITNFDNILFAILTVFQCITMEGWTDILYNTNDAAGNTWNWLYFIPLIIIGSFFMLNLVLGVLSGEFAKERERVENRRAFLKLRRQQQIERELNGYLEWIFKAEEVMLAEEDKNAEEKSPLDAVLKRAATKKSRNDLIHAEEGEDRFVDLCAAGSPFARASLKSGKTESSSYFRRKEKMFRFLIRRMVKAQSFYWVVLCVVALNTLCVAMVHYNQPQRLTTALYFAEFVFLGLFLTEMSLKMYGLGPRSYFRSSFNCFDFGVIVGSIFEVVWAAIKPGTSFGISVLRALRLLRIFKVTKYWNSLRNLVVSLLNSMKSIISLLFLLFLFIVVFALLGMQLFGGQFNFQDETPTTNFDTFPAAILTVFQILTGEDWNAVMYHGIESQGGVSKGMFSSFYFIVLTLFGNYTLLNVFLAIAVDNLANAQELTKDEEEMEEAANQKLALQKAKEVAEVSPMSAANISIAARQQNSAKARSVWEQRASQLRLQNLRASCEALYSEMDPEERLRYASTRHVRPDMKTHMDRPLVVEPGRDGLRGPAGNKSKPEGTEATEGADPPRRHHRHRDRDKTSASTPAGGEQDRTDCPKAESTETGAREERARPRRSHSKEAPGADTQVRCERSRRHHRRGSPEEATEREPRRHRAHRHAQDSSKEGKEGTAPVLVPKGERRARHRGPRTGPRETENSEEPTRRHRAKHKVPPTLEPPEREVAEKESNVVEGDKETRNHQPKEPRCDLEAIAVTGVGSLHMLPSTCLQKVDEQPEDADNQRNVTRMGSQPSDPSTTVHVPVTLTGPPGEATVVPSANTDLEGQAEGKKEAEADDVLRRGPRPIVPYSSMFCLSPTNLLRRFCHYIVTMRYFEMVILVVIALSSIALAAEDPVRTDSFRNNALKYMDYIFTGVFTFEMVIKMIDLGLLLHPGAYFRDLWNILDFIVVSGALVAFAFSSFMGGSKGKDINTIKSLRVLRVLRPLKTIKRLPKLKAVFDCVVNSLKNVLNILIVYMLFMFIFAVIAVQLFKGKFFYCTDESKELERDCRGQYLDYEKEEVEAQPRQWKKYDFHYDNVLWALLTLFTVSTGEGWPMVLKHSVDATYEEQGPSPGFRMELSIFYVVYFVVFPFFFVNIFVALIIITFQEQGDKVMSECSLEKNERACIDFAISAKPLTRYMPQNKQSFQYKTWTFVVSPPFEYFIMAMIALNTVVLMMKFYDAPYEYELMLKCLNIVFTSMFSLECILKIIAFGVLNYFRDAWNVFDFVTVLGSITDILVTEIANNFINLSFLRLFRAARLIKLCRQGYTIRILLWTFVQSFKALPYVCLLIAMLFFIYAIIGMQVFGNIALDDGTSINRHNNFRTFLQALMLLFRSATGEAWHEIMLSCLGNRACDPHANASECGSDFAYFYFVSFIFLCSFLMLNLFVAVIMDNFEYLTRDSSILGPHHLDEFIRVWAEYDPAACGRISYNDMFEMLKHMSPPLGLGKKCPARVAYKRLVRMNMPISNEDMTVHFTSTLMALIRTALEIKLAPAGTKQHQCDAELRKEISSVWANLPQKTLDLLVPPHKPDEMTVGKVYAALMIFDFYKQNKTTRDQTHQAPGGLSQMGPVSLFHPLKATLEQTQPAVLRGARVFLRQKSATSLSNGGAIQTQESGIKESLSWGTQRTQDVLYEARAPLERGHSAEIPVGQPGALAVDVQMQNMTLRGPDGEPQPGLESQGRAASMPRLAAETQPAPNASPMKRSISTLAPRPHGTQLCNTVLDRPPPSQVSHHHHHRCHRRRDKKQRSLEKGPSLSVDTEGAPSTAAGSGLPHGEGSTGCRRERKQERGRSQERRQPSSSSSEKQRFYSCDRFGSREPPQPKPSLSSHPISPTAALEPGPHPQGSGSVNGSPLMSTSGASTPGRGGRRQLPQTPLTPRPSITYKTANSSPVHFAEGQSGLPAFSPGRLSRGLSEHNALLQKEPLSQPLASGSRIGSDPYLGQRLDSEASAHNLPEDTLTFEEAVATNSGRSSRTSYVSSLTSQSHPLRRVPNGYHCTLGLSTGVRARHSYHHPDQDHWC

Sequence of receptors (Bioprint panel) (Homo sapiens, UniProt P03372) (P03372 whole entry): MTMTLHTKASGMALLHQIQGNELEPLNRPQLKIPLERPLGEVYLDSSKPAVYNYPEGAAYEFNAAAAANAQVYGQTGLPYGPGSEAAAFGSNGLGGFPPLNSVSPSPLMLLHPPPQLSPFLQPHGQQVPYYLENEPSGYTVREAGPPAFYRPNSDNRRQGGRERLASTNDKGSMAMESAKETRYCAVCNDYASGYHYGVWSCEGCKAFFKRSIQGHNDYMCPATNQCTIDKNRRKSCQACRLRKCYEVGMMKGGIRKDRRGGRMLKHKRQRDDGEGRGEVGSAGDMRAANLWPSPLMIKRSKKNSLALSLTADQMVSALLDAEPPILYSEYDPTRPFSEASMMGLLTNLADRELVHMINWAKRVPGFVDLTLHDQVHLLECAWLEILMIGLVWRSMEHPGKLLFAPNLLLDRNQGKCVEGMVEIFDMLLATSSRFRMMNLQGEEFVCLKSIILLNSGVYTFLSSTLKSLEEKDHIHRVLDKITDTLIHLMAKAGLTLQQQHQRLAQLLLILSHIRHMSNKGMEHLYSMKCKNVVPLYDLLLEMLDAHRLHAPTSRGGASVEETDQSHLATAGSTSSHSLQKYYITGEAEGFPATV

Compound `CC(C)=CCC[C@H](CO)[C@@H]1CC[C@@H](C)c2c1cc(C)c(O)c2O` [Compound 1, 7,8,18-trihydroxyserrulat-14-ene] has an inhibition at 10 µM [1] of 40%, an inhibition at 10 µM [2] of 47% and an inhibition at 10 µM [3] of 2%. For the same compound, the inhibition at 10 µM [4] was 19%, the inhibition at 10 µM [5] was -18% and the inhibition at 10 µM [6] was 35%. The inhibition at 10 µM [7] was 59%, the inhibition at 10 µM [8] was 7% and the inhibition at 10 µM [9] was 52%. For the same compound, the inhibition at 10 µM [10] was 9%, the inhibition at 10 µM [11] was 18% and the inhibition at 10 µM [12] was 8%. The inhibition at 10 µM [13] was -37%, the inhibition at 10 µM [14] was 6% and the inhibition at 10 µM [15] was 26%. For the same compound, the inhibition at 10 µM [16] was 14%, the inhibition at 10 µM [17] was 34% and the inhibition at 10 µM [18] was 17%. For the same compound, the inhibition at 10 µM [19] was 24%, the inhibition at 10 µM [20] was 12% and the inhibition at 10 µM [21] was -4%. For the same compound, the inhibition at 10 µM [22] was 16%, the inhibition at 10 µM [23] was -2% and the inhibition at 10 µM [24] was 54%. For the same compound, the inhibition at 10 µM [25] was 27%, the inhibition at 10 µM [26] was 39% and the inhibition at 10 µM [27] was 5%.
